In patent US4760062A, “Pharmaceutical compositions of N-heterocyclic benzenesulfonamides and their use” (DROPIC, Societe Civile de gestion de droits de Propriete …, priority 1983, dated 1988):
Read-outs that look alike come from different tables or passages of the source.

Tests used:
mice [1] = test: 4 plates test (suppressive conditioning), 25 mg/kg orally, increase in punished passages with respect to control; type: in vivo, Swiss male mice; conditions: Mus musculus, po, 1 h, male mice, 25 mg/kg single oral dose, 60 minutes before the test; read-out: % increase in the number of punished passages with respect to the control batch
Source text: The method is based on the attenuation or suppression of the anxiety state induced by electric shocks on movement of the animals (mice) into a special enclosure.
The anxiolytic effect is manifested by an increase in movements at doses not affecting motility.
For each dose, the groups are of 15 animals which have not undergone the test.
The apparatus was of the Apelex type.
It is composed of a parallelepipedic box of white plastic material, provided with a lid of transparent plexiglas, mobile by means of two hinges. The floor, which is rectangular, is constituted by four plates of conductive metal of which the distance between one another and the walls of the box is of 0.5 cm.
These plates are connected to an Apelex impulse generator. The potential difference when there is no impulse is, nil between two plates on a diagonal and is of 180 Volts between two adjacent plates. A trigger enables that a constant electrical current pulse be sent (of 0 to 2 milliamperes) for a selected time (from 0.1 to 5 seconds).
The operation is carried out in a silent area at constant temperature, the experimenter overlooking the box so that he can follow all the movements of the mice placed on one of the plates.
For each animal, the experiment is carried out according to the following modalities:
preliminary exploration of 15 seconds, without electric shock;
punished exploration (electric shock for each movement between two ajdacent plates) for 60 seconds.
The electric shocks have a duration of 0.5 seconds and an intensity of 0.6 milliampere.
The controls receive only carboxymethylcellulose.
The results are expressed as percentage of increase in the number of punished passages with respect to the control batch (increase percentage).

mice [2] = conditions: mouse, in vivo
[3] = Acute toxicity (LD0, LD50, LD100); conditions: mouse, in vivo
mice [4] = test: Acute toxicity (LD0, LD50, LD100); conditions: for ratio between the effective dose and the toxicity: mouse, in vivo

Work on `COc1cc(OC)c(S(=O)(=O)N2CCN(CCO)CC2)cc1S(C)(=O)=O` [Compound 1294] yielded a change in vivo at 25 mg/kg (mice [1]) of 17%.

`COc1cc(OC)c(S(=O)(=O)N2CCN(C)CC2)cc1OC` [Compound 1260] gave a change in vivo at 25 mg/kg (mice [1]) of 31%.

Molecule `COc1cc(OC)c(S(=O)(=O)N2CCN(Cc3ccccc3)CC2)cc1S(C)(=O)=O` [Compound 1213] has a change in vivo at 25 mg/kg (mice [1]) of 13%.

Work on `O=C(c1ccco1)N1CCCN(S(=O)(=O)c2ccc(Cl)c(C(F)(F)F)c2)CC1` [Compound 1405] yielded a change in vivo at 25 mg/kg (mice [1]) of 14%.

With `COc1cc(N)c(Cl)cc1S(=O)(=O)N1CCN(C)CC1` [Compound 1427, 1'1-[(4-amino 5-chloro 2-methoxy)benzenesulfonyl]4-methyl piperazine] the “ratio between the effective dose and the toxicity” value (mice [2]) was “satisfactory”, the LD50 [3] was ~800 mg/kg and the LD0 (mice [4]; route not given) was ~500 mg/kg.

In the case of `O=C(N1CCN(S(=O)(=O)c2cccc(C(F)(F)F)c2)CC1)C12CC3CC(CC(C3)C1)C2` [Compound 1503], the change in vivo at 25 mg/kg (mice [1]) is reported as 28%.

With `O=C(c1ccccc1)N1CCN(S(=O)(=O)c2cccc(C(F)(F)F)c2)CC1` [Compound 1502] the change in vivo at 25 mg/kg (mice [1]) was 20%.

In the case of `COc1ccc(Br)cc1S(=O)(=O)N1CCN(c2ccc(F)cc2)CC1` [Compound 1299], the change in vivo at 25 mg/kg (mice [1]) is reported as 28%.

In the case of `COc1ccc(Cl)cc1S(=O)(=O)N1CCN(Cc2ccccc2)CC1` [Compound 1245], the “ratio between the effective dose and the toxicity” value (mice [2]) is reported as “satisfactory”, the LD50 ([3]; ip) is reported as > 2000 mg/kg and the LD0 (mice [4]; mice, route IP) is reported as > 2 000 mg/kg. For the same molecule, the LD100 (mice [4]; mice, route IP) was > 2 000 mg/kg.

Work on `O=S(=O)(c1cc(C(F)(F)F)cc(C(F)(F)F)c1)N1CCCN(CC(O)CO)CC1` (centres unmarked) [Compound 1488, 4-(2.3-dihydroxypropyl)1-[(3,5-ditrifluoromethyl)benzenesulfonyl]homopiperazine] yielded a change in vivo at 25 mg/kg (mice [1]) of 10%.

Molecule `O=S(=O)(c1cc(C(F)(F)F)cc(C(F)(F)F)c1)N1CCCNCC1` [Compound 1408] has a change in vivo at 25 mg/kg (mice [1]) of 22%.

In the case of `COc1cc(OC)c(S(=O)(=O)N2CCNCC2)cc1OC` [Compound 1243], the change in vivo at 25 mg/kg (mice [1]) is reported as 18%, the “ratio between the effective dose and the toxicity” value (mice [2]) is reported as “satisfactory” and the LD50 ([3]; iv) is reported as 200 mg/kg. The LD0 (mice [4]; mice, route IV) was 200 mg/kg and the LD100 (mice [4]; mice, route IV) was 325 mg/kg.

In the case of `O=C(c1ccccc1)N1CCCN(S(=O)(=O)c2ccc(Cl)c(C(F)(F)F)c2)CC1` [Compound 1393], the “ratio between the effective dose and the toxicity” value (mice [2]) is reported as “satisfactory” and the LD0 (mice [4]; by oral route) is reported as > 2 000 mg/kg.

In the case of `O=S(=O)(c1cccc(C(F)(F)F)c1)N1CCN(CCCO)CC1` [Compound 1500], the change in vivo at 25 mg/kg (mice [1]) is reported as 25%.

In the case of `COc1ccc(Cl)cc1S(=O)(=O)N1CCN(CCO)CC1` [Compound 1263], the change in vivo at 25 mg/kg (mice [1]) is reported as 10%.

For `O=C(c1ccco1)N1CCN(S(=O)(=O)c2cc(C(F)(F)F)cc(C(F)(F)F)c2)CC1` [Compound 1403], the change in vivo at 25 mg/kg (mice [1]) was 22%.

In the case of `O=C(N1CCN(S(=O)(=O)c2ccc(Cl)c(C(F)(F)F)c2)CC1)C12CC3CC(CC(C3)C1)C2` [Compound 1406], the change in vivo at 25 mg/kg (mice [1]) is reported as 24%.

With `COc1cc(OC)c(S(=O)(=O)N2CCN(c3ccc(F)cc3)CC2)cc1S(C)(=O)=O` [Compound 1298] the “ratio between the effective dose and the toxicity” value (mice [2]) was “satisfactory”, the LD50 ([3]; ip) was > 2000 mg/kg and the LD0 (mice [4]; mice, route IP) was > 2 000 mg/kg. For the same molecule, the LD100 (mice [4]; mice, route IP) was > 2 000 mg/kg.

In the case of `O=C(c1ccco1)N1CCN(S(=O)(=O)c2ccc(Cl)c(C(F)(F)F)c2)CC1` [Compound 1402], the “ratio between the effective dose and the toxicity” value (mice [2]) is reported as “satisfactory” and the LD0 (mice [4]; by oral route) is reported as > 2 000 mg/kg.

`O=S(=O)(c1cccc(C(F)(F)F)c1)N1CCNCC1` [Compound 1504] gave a change in vivo at 25 mg/kg (mice [1]) of 26%.

`COc1cc([N+](=O)[O-])c(Cl)cc1S(=O)(=O)N1CCN(CCO)CC1` [Compound 1290] showed a change in vivo at 25 mg/kg (mice [1]) of 17%.

For `O=S(=O)(c1cc(C(F)(F)F)cc(C(F)(F)F)c1)N1CCNCC1` [Compound 1400], the “ratio between the effective dose and the toxicity” value (mice [2]) was “satisfactory”, the LD50 [3] was ~700 mg/kg and the LD0 (mice [4]; route not given) was ~250 mg/kg.

For `O=S(=O)(c1cccc(C(F)(F)F)c1)N1CCN(CCO)CC1` [Compound 1505], the change in vivo at 25 mg/kg (mice [1]) was 35%.

In the case of `COc1cc([N+](=O)[O-])c(Cl)cc1S(=O)(=O)N1CCN(C)CC1` [Compound 1292], the LD50 ([3]; ip) is reported as 650 mg/kg, the LD0 (mice [4]; mice, route IP) is reported as 400 mg/kg and the LD100 (mice [4]; mice, route IP) is reported as 1 000 mg/kg. For the same molecule, the “ratio between the effective dose and the toxicity” value (mice [4]) was “satisfactory”.

In the case of `COc1cc(OC)c(S(=O)(=O)N2CCN(CC(O)CO)CC2)cc1Cl` (centres unmarked) [Compound 1295], the LD50 ([3]; ip) is reported as 820 mg/kg, the LD0 (mice [4]; mice, route IP) is reported as 600 mg/kg and the LD100 (mice [4]; mice, route IP) is reported as 1 000 mg/kg. For the same molecule, the “ratio between the effective dose and the toxicity” value (mice [4]) was “satisfactory”.
